Measurements as given in US11083732B2, “Use of negative modulators of GABA receptors containing alpha5 subunits as fast acting antidepressants” (University of Maryland, Baltimore, priority 2014, dated 2021).

Experiments:
[1] = test system: TA-CA1 synapses; experiment: Acute slice electrophysiology: fEPSPs at TA-CA1 synapses after in vivo injection; parameters: species or system rat
Method: Acute slice electrophysiology. Standard methods were used to prepare 400-μm-thick transverse hippocampal slices. Dissection and recording saline contained: 124 mM NaCl, 3 mM KCl, 1.25 mM NaH2PO4, 1.5 mM MgSO4, 2.5 mM CaCl2, 26 mM NaHCO3, and 10 mM glucose, bubbled with 95% O2/5% CO2. Slices were then transferred to a submersion-type recording chamber and perfused at 0.5 2 ml/min at 20-22° C. Picrotoxin (100 μM) and CGP52432 (2 μM) were included to block GABAA and GABAB receptors, and the CA3 region was removed with a scalpel. Because TA-CA1 synapses are electrotonically remote from CA1 cell somata, extracellular recording of local field excitatory postsynaptic potentials (fEPSPs) was used. Recording pipettes (3-5 MSΩ) contained extracellular saline and were placed in stratum lacunosum-moleculare (SLM) to record TA-CA1 responses. fEPSPs were amplified 1000×, filtered at 3 kHz, and digitized at 10 kHz. Concentric bipolar tungsten electrodes were placed >500 μm from the […] in SLM for TA afferents. Stimuli (100 μs) were delivered at 0.05 Hz.
As in previous work (Kallarackal et al., 2013), Mg2+-free saline was used to produce a robust NMDAR-mediated component of the fEPSP for quantification of AMPAR-mediated synaptic excitation. 3-5 consecutive responses were averaged and fEPSP slope was calculated over a 1-3 ms window. […] For NMDA responses, DNQX (50 μM) was bath applied for 15 min and the slope was calculated over a 3-5 ms window in the rising phase of the response, 5-10 ms after its initiation. […]
The inventors used extracellular electrophysiological recording of fEPSPs at TA-CA1 synapses in SLM of area CA1 in brain slices prepared from unstressed rats, rats subjected to ten days of CRS and given a vehicle injection 24 hrs earlier, and rats subjected to ten days of CRS and given an L-655,708 injection 24 hrs earlier (0.7 mg/kg, i.p.). These were the same rats used for the behavioral analyses in FIG. 6. fEPSPs were recorded in ACSF lacking added Mg2+ so as to unblock NMDA receptors. […]

[2] = test system: chronically stressed rats; experiment: Reversal of chronic stress-induced behavioral changes (SPT and SIT; CRS and CUS) overall; format: in vivo, rat
Excerpt: Chronic restraint stress (CRS). Male Sprague Dawley rats (4-5 weeks-old; Harlan Laboratories) were placed in appropriately sized restraint tubes, highly restricting their movement for periods of four hours in a brightly lit lab, every day for ten days during the light phase of their diurnal cycle (Lim et al., 2012).
Chronic unpredictable stress (CUS). Male Sprague-Dawley rats (4-5 weeks-old; Harlan Laboratories) were randomly divided into control and CUS groups. Rats in the CUS group were individually housed. CUS animals were treated with two mild stressors every day for 5-6 weeks during their light phase (Willner et al., 1987). The stressors were randomly cycled to enhance unpredictability. […]
Sucrose preference test (SPT). […] Sucrose preference was calculated as amount of the sucrose solution consumed as a percentage of the total amount of liquid consumed. […]
Several hedonic behaviors in rodents are sensitive to chronic stress and are restored by chronic, but not acute, administration of SSRIs, providing one means to screen for potential antidepressant compounds. First, it was determined whether L-655,708 would rapidly (<24 hrs) restore normal hedonic behavior following chronic restraint stress (Watanabe et al., 1992; Lim et al., 2012), consistent with the rapid antidepressant-like actions of ketamine (Li et al., 2011). […]

[3] = slices from rats after 10 days CRS, L-655,708 0.7 mg/kg i.p. 24 hrs earlier

CCOC(=O)c1ncn2c1[C@@H]1CCCN1C(=O)c1cc(OC)ccc1-2 [L-655,708, ethyl (13aS)-7-methoxy-9-oxo-11, 12,13,13 a-terahydro-9H-imidazo[1,5-a]pyrrolo[2,1-c] [1,4]benzodiazepine-1-carboxylate]
AMPA:NMDA ratio ([1]; slices from CRS rats, L-655,708 24 hrs earlier, compared to vehicle-treated CRS animals): significantly higher
AMPAR-mediated signaling at TA-CA1 synapses (slope of AMPAR component of fEPSP) [1, 3]: reversed rapidly
slope of the NMDA component of the fEPSP [1, 3]: no corresponding difference
time to reversal of chronic stress-induced depressive-like behavioral changes ([2]; CRS and CUS, 0.7 mg/kg i.p., model-independent): less than 24 hrs
time to reversal of loss of sucrose preference and decrease in social interaction ([2]; single injection, l mg/kg intraperitoneally, CUS and CRS): ≤ 24 h
